Data from patent US20120004289A1, “ANNEXIN A11 AND ASSOCIATED GENES AS BIOMARKERS FOR CANCER” (The Johns Hopkins University, priority 2009, published 2012).

Assays:
Format in all cases: cell-based, human
[1] = test system: 2008 cells; experiment: Cell colony formation assay after annexin A11 siRNA, 2008 cells; conditions: siRNA 40 nM 3 days, colonies counted six days after plating, P<0.01
Experimental: (§1) (A and B) Cell proliferation assay. 2008 (A) or HEY (B) cells were treated with RNAi (A1) or -Ctr at the concentration of 40 nM for 3 days, respectively, and then plated at 3000 viable cells per well into 96-well plates. Every 24 hours, one plate was subjected to assay by CCK-8 kit. The data in each time point are averaged values from eight replicates (P<0.05). (C) Colony formation assay. 2008 cells were treated in the same way as above for 3 days and then plated at 3000 viable cells per well into six-well plates. Six days after plating, cells were fixed with methanol and stained with 0.1% crystal violet and colonies were counted. The experiment was performed in six replicates (P<0.01). (D) Cell cytotoxicity assay. 2008 cells were treated in same way as above for 3 days and then plated at 3000 viable cells per well into 96-well plates. […]
2008 and HEY cells were cultured in T25 flasks and transfected with A1 or negative control for 3 days. Cells were then collected, counted, and plated at 3000 viable cells per well into six-well plates. Six days after plating, cells were fixed with methanol and stained with 0.1% crystal violet, and colonies were counted under the light microscope. […]

[2] = test system: 2008 cells; experiment: Cell proliferation assay (CCK-8) after annexin A11 siRNA, 2008 cells; conditions: siRNA 40 nM 3 days, compared with negative control transfectants, P<0.05
Experimental: as §1
(§2) Cell Counting Kit-8 (CCK-8; Dojindo, Gaithersburg, Md.) was used in cell proliferation assay. […] Cells were then collected by trypsinization, counted by using a hemacytometer with trypan blue dye, and plated at 3000 viable cells per well into 96-well tissue culture plates in a final volume of 100 μl. […] The absorbance at 450 nm was measured with a microplate reader (EL 312e; Biotek Instruments, Winooski, Vt.). […]

[3] = test system: annexin A11 protein; experiment: siRNA knockdown of annexin A11, immunoblot analysis in HEY cells; conditions: after 2 days of siRNA transfection at 40 nM
Experimental: (A and B) Effect of silencing of annexin A11 using different siRNA. 2008 cells were treated with one (A1 or A2 or A3) or a combination (A1-3) of three stealth RNA against annexin A11 or nonspecific sequence (-Ctr) at the concentration of 40 nM or without treatment (Wt) for 3 days. Immunoblot analysis (A) and real-time PCR (B) were performed to confirm the suppression of annexin A11 mRNA and protein expressions in the cells. β-Actin was taken as an additional control for equal sampling in immunoblot analysis (A). The relative mRNA expression level of each sample was normalized to GAPDH expression and compared with -Ctr sample. *P<0.05 (B). (C) Dose-dependent silencing of annexin A11 by siRNA. 2008 cells were treated with RNAi (A1) at the indicated concentrations of 40, 20, 10, or 5 nM or -Ctr at the concentration of 40 nM or without treatment (Wt) for 3 days. Immunoblot analysis (C) was performed to check the annexin A11 expression levels in the cells. β-Actin was taken as an additional control for equal sampling. (D) Duration of silencing of annexin A11 using siRNA. 2008 or HEY cells were treated with RNAi (A1) or -Ctr at the concentration of 40 nM. […]
All stealth RNA interference (RNAi) sequences were purchased from Invitrogen. […] The optimized dose and duration of RNAi silencing were experimentally determined. […]

[4] = test system: annexin A11 protein; experiment: siRNA knockdown of annexin A11, immunoblot analysis in 2008 cells; conditions: for annexin A11 protein expression (immunoblot): siRNA 40 nM, compared with strong expression in -Ctr and Wt cells
Experimental: (§3) (A and B) Effect of silencing of annexin A11 using different siRNA. 2008 cells were treated with one (A1 or A2 or A3) or a combination (A1-3) of three stealth RNA against annexin A11 or nonspecific sequence (-Ctr) at the concentration of 40 nM or without treatment (Wt) for 3 days. Immunoblot analysis (A) and real-time PCR (B) were performed to confirm the suppression of annexin A11 mRNA and protein expressions in the cells. β-Actin was taken as an additional control for equal sampling in immunoblot analysis (A). The relative mRNA expression level of each sample was normalized to GAPDH expression and compared with -Ctr sample. *P<0.05 (B). (C) Dose-dependent silencing of annexin A11 by siRNA. 2008 cells were treated with RNAi (A1) at the indicated concentrations of 40, 20, 10, or 5 nM or -Ctr at the concentration of 40 nM or without treatment (Wt) for 3 days. Immunoblot analysis (C) was performed to check the annexin A11 expression levels in the cells. β-Actin was taken as an additional control for equal sampling. (D) Duration of silencing of annexin A11 using siRNA. 2008 or HEY cells were treated with RNAi (A1) or -Ctr at the concentration of 40 nM. Immunoblot analysis was performed to analyze the annexin A11 expression levels in these cells.
All stealth RNA interference (RNAi) sequences were purchased from Invitrogen. The three stealth RNAi that targeted different annexin A11 sequences were as follows: A1, […]; A2, […]; and A3, […]. The stealth RNAi negative control duplex (medium GC) was used as a negative control. Transfection of annexin A11-specific siRNA and the negative control was performed using Lipofectamine 2000 (Invitrogen). The optimized dose and duration of RNAi silencing were experimentally determined. Briefly, cancer cells were seeded the day before siRNA transfection in either six-well plates or T25 flasks and were 30% to 50% confluent at the time of transfection. Stealth RNAi and Lipofectamine were diluted in Opti-MEM I Medium (Invitrogen), and 40 nM of the siRNA duplex was used in each transfection mixture. 2008 or HEY cells were transfected with one annexin A11-specific siRNA (A1 or A2 or A3) or a combination of three different siRNA at the equal amount (A1-3) or negative control for 2 to 3 days and were then harvested for the downstream experiments.
The denatured samples were electrophoresed on 4% to 15% gradient SDS-PAGE gels (Bio-Rad), electroblotted on nitrocellulose membranes (Bio-Rad), and probed with the respective antibodies against different targets. Both anti-annexin A11 (1:10,000) and anti-annexin A5 (1:2000) monoclonal antibodies were purchased from BD Biosciences (San Jose, Calif.). Rabbit anti-human HMOX1 polyclonal antibody (1:500) and mouse polyclonal anti-LY6D (1:500) were purchased from GenWay Biotech (San Diego, Calif.) and Novus Biologicals (Littleton, Colo.), respectively. The bound antibodies were visualized with horseradish peroxidase-conjugated secondary antibodies and enhanced chemiluminescence (Amersham, Pittsburgh, Pa.). Actin in the corresponding cell lysates was used as an additional control to show equal loading.

[5] = test system: HEY cells; experiment: Cell proliferation assay (CCK-8) after annexin A11 siRNA, HEY cells; conditions: siRNA 40 nM 3 days, compared with negative control transfectants, P<0.05
Experimental: as §1, §2

[6] = test system: annexin A11 mRNA; experiment: siRNA knockdown of annexin A11, real-time PCR of mRNA in 2008 cells; conditions: siRNA 40 nM, 3 days, compared with negative control cells (-Ctr), P<0.05
Experimental: as §3
All stealth RNA interference (RNAi) sequences were purchased from Invitrogen. The three stealth RNAi that targeted different annexin A11 sequences were as follows: A1, […]; A2, […]; and A3, […]. The stealth RNAi negative control duplex (medium GC) was used as a negative control. […] The optimized dose and duration of RNAi silencing were experimentally determined. […]
(Invitrogen) according to the manufacturer's instructions. […] An experiment consisted of triplicate amplification reactions for each gene product being analyzed. […] The cycle threshold number (CT) was determined for each PCR using iQ5 Real-time PCR Detection System (Bio-Rad). […] Results are expressed as relative abundance of a specific mRNA between control and experimental sample (fold change, mean±SD).

| Substance | colony formation ability [1] | decrease in rate of proliferation [2] | duration of silencing of annexin A11 protein expression [3] | silencing effect on annexin A11 expression by concentration (immunoblot) ([4]; 5 to 40 nM, 3 days) | duration of silencing of annexin A11 protein expression ([4]; after 3 days of siRNA transfection at 40 nM) | annexin A11 protein expression (immunoblot) ([4]; 3 days) | decrease in rate of proliferation [5] | down-regulation in annexin A11 mRNA expression levels [6] |
| --- | --- | --- | --- | --- | --- | --- | --- | --- |
| A1: stealth RNAi (Invitrogen) targeting annexin A11, GGCCGUGGUGAAAUGUCUCAAGAAU (chemistry not given here) | greatly damaged | 40% | ≥ 7 days | dose-dependent silencing effect | ≥ 10 days | barely detectable | 34% | three-fold to four-fold |
| A2: stealth RNAi (Invitrogen) targeting annexin A11, CCUCCUGGACAUCAGAUCAGAGUAU (chemistry not given here) |  |  |  |  |  | barely detectable |  | three-fold to four-fold |
| A3: stealth RNAi (Invitrogen) targeting annexin A11, GGGAUUACCGGAAGAUUCUGCUGAA (chemistry not given here) |  |  |  |  |  | barely detectable |  | three-fold to four-fold |
